“And” between values parts separate entries of the source, which are not always exact repeats. Equal values may be shown once. “Also recorded” adds a separate entry of the source. No end group written: not given here.
Legend:
[1] = tested on: rat cerebellar granule neurons cultured on monolayers of NIH 3T3 fibroblasts; assay: in vitro neurite outgrowth co-culture assay (axon regeneration); format: cell-based; conditions: for stimulation of neurite outgrowth (in words): agent included in coculture medium, 16 hour culture; for peptide concentration giving maximal effects in neurite outgrowth assay: rat cerebellar neurons on 3T3 monolayer, 16 hours
Protocol: An example of such an assay is a co-culture assay in which neurons are cultured on top of cellular monolayers for 16 hours, before being fixed and stained with a neuron-specific antibody. The mean length of the longest neurite per cell can then be determined by fluorescence microscopy using an appropriate image analysis programme. The neurons may be, for example, (in this case cerebellar granule cell neurons, hippocampal, dorsal root ganglion, olfactory, motor or dopaminergic neurons. The cellular monolayer is, for example NIH 3T3 fibroblasts.
Monolayers of NIH 3T3 fibroblasts were established by seeding 80,000 cells per well in Lab-Tek 8-chamber slides previously coated sequentially with poly-L-lysine and fibronectin and culturing them overnight in DMEM+10% FCS growth medium.
Cerebellum was dissected from post-natal day 2-4 rat pups and the meninges and extraneous tissue discarded. Cerebellum was chopped into small pieces and trypsinised for 10 minutes at 37° C. Trypsin was neutralised using growth medium and the cells pelletted at 1000×g for 7 minutes. Cerebellar neurons were then resuspended in SATO growth medium containing 2% FCS, counted, and plated on top of the fibroblast monolayer at a density of 1,500 neurons per well. After 16 hours, cocultures were fixed with 4% para-formaldehyde and stained with an anti-GAP43 neuron-specific antibody, which was a gift from Dr Graham Wilkin, Imperial College Department of Biochemistry, London, but any other neuron-specific marker can be used.
The mean neurite length of 150-200 neurons per well was determined using a fluorescent microscope and Zeiss KS300 imaging software.
Peptides A, A(d), B, C, D, E, and F were each incorporated in the SATO medium at a range of concentrations from 0 to 200 μg/ml. Nerve growth factor (NGF) and fibroblast growth factor (FGF2) were used as controls at the same range of concentrations.

[2] = tested on: NIH 3T3 cells; assay: NIH 3T3 cell survival MTS assay in serum-free DMEM (Example 6); format: cell-based; conditions: for survival of NIH3T3 cells in serum-free conditions (in words): FGF2 only at low concentrations; for survival of NIH3T3 cells: low-density cultures
Protocol: NIH 3T3 cells are plated in 96-well plates at a density of 5,500 cells/well in 100 μl DMEM containing 0.5% FCS. After 24 hours, this medium is aspirated from the wells and replaced with 100 μl serum-free DMEM alone, or supplemented with 0.5% FCS (positive control), or a single potential survival factor, with four identical wells set up for each condition. The cells are left for up to seven days at 37 degrees and 8% CO2 before the cell survival is determined using an MTS assay. In this assay 20 μl of MTS substrate is added to each 100 μl well and the plate left in the incubator for up to four hours. Respiring cells produce a coloured reaction product that can be read using a spectrophotometer at 490 nm. […] The mean absorbance at 490 nm+/−SEM is determined for the four identically set up wells. Wells containing a known survival factor such as insulin will contain more living cells after three days than cells cultured in unsupplemented medium.

[3] = tested on: DRG neurons; format: cell-based, rat; conditions: 10 ng/ml, 10 days in SATO medium
Protocol: DRG neurons were taken from embryonic day 16 rates and cultured at a density of-10,000 cells/well of a 96-well plate-over 10 days in SATO medium, unsupplemented or supplemented with 10 ng/ml NGF, 10 ng/ml FGF2 or 800 ng/ml Peptide A(d). An OD of 100% reflects the baseline cell survival n the absence of any supplement in the medium.

[4] = tested on: MAP kinase; assay: Western blot for tyrosine phosphorylated MAP kinase in NIH 3T3 cells; format: cell-based; conditions: 10 minutes
Protocol: A Western blot (FIG. 2f) was obtained as follows: one million NIH 3T3 cells were serum starved for 24 hours then challenged with the following agents: DMEM, 10% FCS, 0.1 ng/ml FGF2, 1 ng/ml FGF2, 10 ng/ml FGF2, 5 μg/ml insulin, 400 μg/ml peptide 52 for 10 minutes at 37 degrees Celsius before being lysed in sample buffer and band separated by PAGE. Proteins were transferred to PVDF membranes and probed with an antibody that recognises tyrosine phosphorylated MAP kinse (upper panel).

[5] = tested on: cells in S phase (bromodeoxyuridine incorporation into DNA); assay: bromodeoxyuridine incorporation (entry into S phase) mitogenicity assay; format: cell-based; conditions: six hours
Protocol: The mitogenicity of an agent can be determined by testing its ability to stimulate entry of cells into ‘S’ phase in readiness for cell division. This is done by standard methodology and involves incubating cells in the presence of a potential mitogen in DMEM supplemented with bromodeoxyuridine. After six hours the cells are fixed and stained with an antibody recognising bromodeoxyuridine. Cells in S phase can be distinguished by their incorporation of bromodeoxyuridine into DNA.

[6] = tested on: NIH 3T3 cells; assay: NIH 3T3 survival and morphology, TRITC-conjugated phalloidin staining; format: cell-based; conditions: three days
[7] = tested on: L6 cell line; assay: survival of L6 cell line lacking FGF receptors; format: cell-based; conditions: FGF2 0.1, 1 and 10 ng/ml; Peptide A(d) 100 and 400 μg/ml
Protocol: FIG. 2d compares the effects of DMEM, FCS, FGF2 at 0.1, 1 and 10 ng/ml, insulin at 0.5 and 5 μg/ml, and Peptide A(d) at 100 and 400 μg/ml.

[8] = tested on: NIH3T3 cells; assay: cell survival/proliferation at two plating densities
Description: FGF2 is a mitogen for a range of cells, including NIH3T3 cells.

[9] = tested on: NIH 3T3 fibroblasts; assay: survival of 3T3 fibroblasts in serum-free DMEM (MTS and morphologic method, Example 5a); format: cell-based; conditions: in the presence of FGF
Protocol: NIH 3T3 fibroblasts were plated in each well of a 96-well microtitre plate at a density of 7,000 cells per well in DMEM containing 3% FCS and left to attach overnight. The following day the growth medium was removed and replaced with 0.1 ml DMEM supplemented with FGF or Peptide A(d) or both, eight wells for each condition. The negative control was DMEM alone (maximal cell death) and the positive control was supplementation with 0.5% FCS (maximal cell survival).
Six days later (seven days from first plating the cells), the relative number of living cells in each well was assessed by adding the mitochondrial substrate MTS, [3-(4,5-dmethylthiazol-2-yl)-5-(3-carboxymethoxyphenyl)-2-(4-sulphophenyl)-2H-tetrazolium, inner salt), for four hours before reading the optical density on a microtitre plate reader at a wavelength of 490 nm. The optical density gives a measure of the number of respiring cells present in each well at the end of the assay period.
In addition to the biochemical assay, survival was assessed qualitatively using a morphologic method in which cells were plated in 8-chamber Lab Tek slides in DbEM alone (negative control), or DMEM supplemented with 0.5 ng/ml FGF2; 0.5% FCS (positive control), or 25-200 μg/ml Peptide A(d). After three days the cells were fixed with 4% paraformaldehyde, permeablised with methanol and stained with TRITC-conjugated falloidin to visualise the cell cytoskeleton.

[10] = tested on: Oligodendrocyte progenitors (O4 positive); format: cell-based, rat; conditions: six days in culture, medium supplemented with insulin
Description: Oligodendrocyte progenitors (O4 positive) are purified from postnatal day 4 rat cerebral cortex. First a trypsinised preparation of cortical cells is dissociated to single cell suspension and pre-plated to remove unwanted adherent cells such as microglia and macrophages. Oligodendrocyte progenitors express the O4 antigen, and can be purified by panning on petri-dishes coated with anti O4 antibodies. Unbound cells are removed by gentle washing, then O4 positive cells are removed by triturating them off the plate with DMEM containing 1% FCS, through a flame-polished pasteur pipette. O4 positive cells are plated on polyornithine-coated glass coverslips at a density of 500,000 cells per well in minimal growth medium containing insulin or the peptide Ac-DRVEPYSSTA[lys]2[lys] i.e. [{Ac-DRVEPYSSTA}2-K]2-K-OH, Peptide A(d), for six days, before being fixed and stained with the anti O4 antibody. Viable O4 positive cells are counted for each condition

[11] = tested on: cerebellar neurones expressing a dominant-negative form of FGF receptors; assay: neurite outgrowth of cerebellar neurones from transgenic mice expressing dominant-negative FGF receptors; format: cell-based; conditions: neurons unable to signal through the FGF receptor; listed as Ac-DRVEPYSSTA-amide
[12] = insulin 0.5 pg/ml, FGF2 0.1 ng/ml, Peptide A(d) 10 ng/ml

Substance | stimulation of neurite outgrowth (in words) [1] | survival of NIH3T3 cells in serum-free conditions (in words) [2] | peptide concentration giving maximal effects in neurite outgrowth assay [1] | further results
Ac-ARVEPYSSTA-amide (Ac-ARVEPYSSTA-NH2) | do not | – | – | –
Ac-ARSEPYSSTA-amide (Ac-ARSEPYSSTA-NH2) | do not | – | – | –
[{Ac-ADTRSVSEYP}2-K]2-K-OH (also: branched lysine tetramer: four chains on [K]2-K core, core C-terminus free acid (-OH)) [Ac-ADTRSVSEYP [lys]2[lys], 'scrambled' version of Peptide A(d)] | – | ineffective | – | –
Acetyl-DAVEPYSSTA-amide (Ac-DAVEPYSSTA-NH2) [Peptide F] | retain the full ability to stimulate neurite outgrowth | – | – | –
Acetyl-DRSEPYSSTA-amide (Ac-DRSEPYSSTA-NH2) [Peptide E] | retain the full ability to stimulate neurite outgrowth | – | 50-100 μg/ml and 50-100 μM | –
Ac-PYSSTA-NH2 | unable to stimulate neurite outgrowth | – | – | effect on NCAM-stimulated neurite outgrowth ([1]; NCAM-stimulated, low peptide concentrations): able to inhibit NCAM-stimulated neurite outgrowth
Acetyl-EGME-amide [Peptide C] | stimulates neurite outgrowth to the same extent as Ac-DRVE-amide | able to stimulate cell survival | 38 μg/ml and 75 μM | –
soluble NCAM: soluble NCAM (Neuronal Cell Adhesion Molecule) | approximately doubles | – | – | –
NGF: Nerve growth factor (NGF) | approximately doubles | – | – | increase in DRG neuron survival over unsupplemented baseline [3]: 121%
FGF2: fibroblast growth factor (FGF2) | approximately doubles; also recorded: stimulates neurite outgrowth in this assay with a biphasic dose-response curve | stimulate dose-dependent survival | – | MAP kinase activation ([4]; FGF2 0.1 ng/ml): did not; also recorded: do not; MAP kinase activation ([4]; FGF2 1 or 10 ng/ml): resulted in MAP kinase activation; also recorded: stimulate MAP kinase activation; mitogenicity (entry into S phase) ([5]; FGF2 0.1 ng/ml): unable to stimulate entry into S phase; mitogenicity (entry into S phase) ([5]; FGF2 10 ng/ml): mitogenicity of 10 ng/ml FGF2 can be seen; cell survival / morphology ([6]; FGF2 1 and 10 ng/ml): reduced in number, and appear apoptotic; cell survival / morphology [6, 12]: stimulate cell survival; increase in DRG neuron survival over unsupplemented baseline [3]: 73%; survival of L6 cell line [7]: unable to stimulate the survival; survival of NIH3T3 cells ([2]; FGF2 1 ng/ml): ineffective; survival of NIH3T3 cells ([2]; FGF2 10 ng/ml, three days): stimulates apoptosis; effect on cells plated at low density ([8]; 5,500 cells per well, 10 ng/ml FGF2): stimulates apoptosis; cells remaining compared with the peptide [9]: far fewer cells remaining
Acetyl-DRVE-amide (Ac-DRVE-NH2) [Peptide B] | could stimulate the response | able to stimulate cell survival | 75 μg/ml and 150 μM | –
Acetyl-EGMEGM-amide (Ac-EGMEGM-NH2) [Peptide D] | equally active | – | 100 µM | –
insulin: known survival factor | – | stimulate dose-dependent survival | – | MAP kinase activation ([4]; insulin 5 μg/ml): showed a small activation; also recorded: do not; cell survival / morphology [6, 12]: stimulate cell survival; cells originally plated that survive [10]: 25%; cell proliferation ([8]; 11,000 cells per well, FGF2 10 ng/ml): stimulates cell proliferation
[{Ac-ARSEPYSSTA}2-K]2-K-OH (also: branched lysine tetramer: four chains on [K]2-K core, core C-terminus free acid (-OH)) [Ac-ARSEPYSSTA [lys]2[lys], "mutated" multimeric peptide] | – | stimulated cell survival, though not as potently as the parent peptide | – | –
Acetyl-DRVEPYSSTA-amide (Ac-DRVEPYSSTA-NH2) [Peptide A] | full activity was retained | – | 100-200 μg/ml and 100-200 μM | effect on neurite outgrowth stimulated by FGF2 ([1]; peptide at low concentration (25 μM), listed as Ac-DRVEPYSSTA-amide): inhibits neurite outgrowth stimulated by FGF2; neurite extension in response to the peptide [11]: unable to extend neurites; also recorded: not able to extend neurites
Ac-SIDRVEPYSSTAQ-amide (Ac-SIDRVEPYSSTAQ-NH2) [synthetic 13 amino acid peptide derived from the first fibronectin type III domain of NCAM] | dose-dependent increase in neurite outgrowth | – | – | concentration at which neurite length equalled that stimulated by NCAM [1]: 100 µM

Source: patent US7304129B2 (Imperial Innovations Limited, priority 2000, dated 2007)
